Assay results reported in the Kinase Knowledgebase extract (Sharma et al. 2016).

Target: EGFR (UniProt P00533)
Sequence (P00533 whole entry, looked up): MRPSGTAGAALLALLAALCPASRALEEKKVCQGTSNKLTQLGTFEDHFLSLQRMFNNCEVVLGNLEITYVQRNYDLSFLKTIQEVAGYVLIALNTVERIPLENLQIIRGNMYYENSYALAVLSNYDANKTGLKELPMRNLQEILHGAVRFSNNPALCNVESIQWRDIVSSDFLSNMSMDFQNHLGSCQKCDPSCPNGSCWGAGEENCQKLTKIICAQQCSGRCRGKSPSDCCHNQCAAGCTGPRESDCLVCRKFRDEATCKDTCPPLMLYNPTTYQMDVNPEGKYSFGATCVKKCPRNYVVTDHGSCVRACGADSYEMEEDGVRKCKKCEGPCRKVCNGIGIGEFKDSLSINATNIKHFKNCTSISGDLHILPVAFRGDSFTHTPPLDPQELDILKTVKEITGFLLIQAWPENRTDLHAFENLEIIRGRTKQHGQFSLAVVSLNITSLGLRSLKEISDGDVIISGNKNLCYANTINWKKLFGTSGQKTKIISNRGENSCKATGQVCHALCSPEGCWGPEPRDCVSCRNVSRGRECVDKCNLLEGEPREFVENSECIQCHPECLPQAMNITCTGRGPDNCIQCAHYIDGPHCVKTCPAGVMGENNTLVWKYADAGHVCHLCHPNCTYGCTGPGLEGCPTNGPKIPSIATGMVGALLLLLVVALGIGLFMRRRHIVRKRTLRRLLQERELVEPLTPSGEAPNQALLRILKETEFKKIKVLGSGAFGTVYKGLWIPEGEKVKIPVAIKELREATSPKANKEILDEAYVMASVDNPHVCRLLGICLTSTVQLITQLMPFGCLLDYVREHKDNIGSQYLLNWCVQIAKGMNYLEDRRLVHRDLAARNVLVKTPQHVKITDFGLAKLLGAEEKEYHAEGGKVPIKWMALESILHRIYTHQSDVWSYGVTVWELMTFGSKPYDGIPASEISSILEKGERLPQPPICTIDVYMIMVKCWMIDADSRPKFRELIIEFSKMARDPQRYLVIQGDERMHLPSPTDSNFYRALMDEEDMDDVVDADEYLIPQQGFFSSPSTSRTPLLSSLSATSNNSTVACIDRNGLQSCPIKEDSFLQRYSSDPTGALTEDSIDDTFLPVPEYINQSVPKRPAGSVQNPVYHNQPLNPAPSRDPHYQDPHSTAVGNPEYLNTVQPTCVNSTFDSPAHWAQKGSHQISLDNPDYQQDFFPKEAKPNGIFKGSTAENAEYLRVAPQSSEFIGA

IC50, 0.003 to 25 µM:
Cc1ccc(Nc2ncnn3cc(N)c(C)c23)cc1O
COC(=O)c1cn2ncnc(Nc3cc(C)[nH]n3)c2c1C
COC(=O)c1c(OC)c(OC)c2c(C3C(=O)Nc4ccccc43)ncnn12 (stereo not given)
CCOC(=O)c1cn2ncnc(C3C(=O)Nc4ccccc43)c2c1OC (stereo not given)
CCc1c(C(=O)OCc2ccccc2)cn2ncnc(Nc3ccc(F)c(Cl)c3)c12
COC(=O)c1cn2ncnc(Nc3ccc(C)c(S(N)(=O)=O)c3)c2c1C
Cc1c(C(=O)NCCCn2cncn2)cn2ncnc(C3C(=O)Nc4ccccc43)c12 (stereo not given)
COC(=O)c1cn2ncnc(Nc3ccc(OC)c(OC)c3)c2c1C
COc1cn2ncnc(C3C(=O)Nc4ccccc43)c2c1C (stereo not given)
CCOC(=O)c1cn2ncnc(Nc3ccc4c(cnn4Cc4ccccc4)c3)c2c1Cc1ccccc1
COC(=O)c1cn2ncnc(Nc3ccc(Br)cc3F)c2c1C
CCOC(=O)c1cn2ncnc(NCc3cccc(Br)c3)c2c1CC
Fc1cc(Cl)ccc1Nc1ncnn2cccc12
Cc1c(C(=O)NCCCn2ccnn2)cn2ncnc(C3C(=O)Nc4ccccc43)c12 (stereo not given)
COc1cn2ncnc(C3C(=O)Nc4ccccc43)c2c1OC (stereo not given)
COC(=O)c1cc2c(Nc3ccc(F)c(Cl)c3)ncnn2c1
COC(=O)c1cn2ncnc(N3CCc4ccccc43)c2c1C
Cc1c(C(=O)NCCCN2CCOCC2)cn2ncnc(C3C(=O)Nc4ccc(S(N)(=O)=O)cc43)c12 (stereo not given)
COC(=O)c1cn2ncnc(Nc3nc4ccccc4s3)c2c1C
Cc1c(C(=O)NCCCN2CCOCC2)cn2ncnc(Nc3ccc(Br)cc3)c12
COC(=O)c1cn2ncnc(Nc3cc(O)c4ccccc4c3)c2c1C
COC(=O)c1cn2ncnc(Nc3cc(C)cc(O)c3)c2c1C
CCc1c(C(=O)NCCN2CCOCC2)cn2ncnc(Nc3ccc4c(cnn4Cc4ccccc4)c3)c12
Cc1ccc(Nc2ncnn3c(C)ccc23)cc1O
CCOC(=O)c1cn2ncnc(Nc3ccc(Oc4ccccc4)cc3)c2c1CC
COC(=O)c1cn2ncnc(Nc3ccc(NS(=O)(=O)c4ccccc4)c(O)c3)c2c1C
CCCCc1ccc(Nc2ncnn3cc(C(=O)OC)c(C)c23)cc1O
CCOC(=O)c1cn2ncnc(N3CCCC4C=CC=CC43)c2c1CC (stereo not given)
Cc1c(NS(C)(=O)=O)cn2ncnc(C3C(=O)Nc4ccccc43)c12 (stereo not given)
COc1cn2ncnc(Nc3ccc(C)c(O)c3)c2c1OC
COC(=O)c1cn2ncnc(Nc3ccc(OC)c(O)c3)c2c1C
CCOC(=O)c1cn2ncnc(Nc3ccc4c(cnn4Cc4ccccc4)c3)c2c1CC
Cc1c(C(=O)CCN2CCN(C)CC2)cn2ncnc(C3C(=O)Nc4ccccc43)c12 (stereo not given)
COC(=O)c1cn2ncnc(Nc3ccc4c(c3)NCC4)c2c1C
Cc1c(C(=O)NCCN2CCOCC2)cn2ncnc(C3C(=O)Nc4ccccc43)c12 (stereo not given)
CCOC(=O)c1cn2ncnc(NCc3ccccc3)c2c1CC
CCOC(=O)c1cn2ncnc(Nc3ccc(F)c(Cl)c3)c2c1Cc1ccccc1
COCCCNC(=O)c1cn2ncnc(Nc3ccc(C)c(O)c3)c2c1C
COC(=O)c1cn2ncnc(Nc3ccc(Cl)c([N+](=O)[O-])c3)c2c1C
Cc1c(C(=O)CCN2CCOCC2)cn2ncnc(C3C(=O)Nc4ccccc43)c12 (stereo not given)
